Measured values published in patent EP4741383A1, “COMPOUND AND USE THEREOF AS ANTI-CANCER DRUG” (Tyligand Bioscience (Shanghai) Limited, priority 2023, dated 2025).
Like-named read-outs stand apart in the source and are kept apart here.

Target: T1, CYP3A4 (Homo sapiens, UniProt P08684)
T1 construct: tissue Corning or Xenotech; host or cells: human liver microsomes
Assay: CYP450 inhibition in human liver microsomes, CYP3A4 (midazolam and testosterone substrates)
Type: in vitro ADME
Excerpt: According to standard methods in the field for the study of cytochrome P450 enzyme systems, such as the method described in Kerns, Edward H. and Di Li et al., Drug-like Properties: Concepts, Structure Design and Methods: from ADME to Toxicity Optimization (2008), San Diego, Academic Press, and Lin, Tong et al., In Vitro Assessment of Cytochrome P450 Inhibition: Strategies for Increasing LC/MS-Based Assay Throughput Using a One-Point IC50 Method and Multiplexing High-Performance Liquid Chromatography (J. Pharm. Sci. 2007, 96 (9), 2485). The inhibitory effect of the disclosed compounds on the cytochrome P450 enzyme system was similarly examined below.
Human liver microsomes were purchased from Corning or Xenotech. The test compounds were evaluated by detecting the metabolism of substrates for different Cyp450 isoforms by human liver microsomes.
0.1 M potassium phosphate buffer (K-buffer, pH 7.4) was pre-warmed.
100 mM K-buffer was prepared by mixing 9.5 mL of stock solution A (1 M potassium dihydrogen phosphate, prepared by dissolving 136.5 g of potassium dihydrogen phosphate in 1 L of Milli-Q water) with 40.5 mL of stock solution B (1 M potassium hydrogen phosphate, prepared by dissolving 174.2 g of potassium hydrogen phosphate in 1 L of Milli-Q water). The total volume was adjusted to 500 mL with Milli-Q water, and the buffer was titrated to pH 7.4 using KOH or H3PO4.
Test compound solution and specific inhibitor solution (400× dilution) were prepared in a 96-well plate. For the test compound, 8 µL of 10 mM test compound was transferred into 12 µL of ACN. For specific inhibitors of CYP1A2, CYP2C9, and CYP2D6: 12 µL of 1 mM α-naphthoflavone, 10 µL of 40 mM sulfaphenazole, 10 µL of 10 mM quinidine, and 8 µL of DMSO were mixed. For specific inhibitors of CYP3A4, CYP2B6, CYP2C8, and CYP2C19: 8 µL of DMSO stock solution was added to 12 µL of ACN.
A 4× diluted NADPH solution was prepared by dissolving 66.7 mg of NADPH in 10 mL of 0.1 M K-buffer (pH 7.4). Human liver microsome (HLM) solutions were prepared in K-buffer, wherein 0.1 mg/mL for CYP1A2, CYP2C9, CYP2D6, CYP3A4, and CYP2B6, 0.5 mg/mL for CYP2C19, 0.2 mg/mL for CYP2C8. 4× diluted substrate dilution solutions (2 mL per isozyme) were prepared in K-buffer (HLM was added on ice if required) with the following concentrations: 120 µM for CYP1A2, 40 µM for CYP2C9, 140 µM with 1.6 mg/mL HLM for CYP2C19, 40 µM for CYP2D6, 320 µM and 20 µM for CYP3A4 (two concentrations), 280 µM for CYP2B6, 40 µM with 0.4 mg/mL HLM for CYP2C8.
A 0.2 mg/mL HLM solution was prepared on ice (by adding 10 µL of 20 mg/mL stock to 990 µL of 0.1 M K buffer). To the assay wells, 400 µL of the 0.2 mg/mL HLM solution was added, followed by 2 µL of the 400× diluted test compound solution, which was added on ice to the designated wells. To the assay wells, 200 µL of the 0.2 mg/mL HLM solution was added, followed by 1 µL of the specific inhibitor solution, which was added on ice to the designated wells. The following solutions were added in duplicate to the 96-well analysis plate kept on ice: 30 µL of the 2× diluted test compound solution and the specific inhibitor solution were added to the 0.2 mg/mL HLM solution, 15 µL of the 4× diluted substrate solution was added. The 96-well assay plate and the NADPH solution were pre-incubated at 37 °C for 5 min. The reaction was initiated by adding 15 µL of the pre-warmed 8 mM NADPH solution to the assay plate. Reactions were performed at 37 °C for the following durations according to the P450 isoform: 5 min for CYP3A4, 10 min for CYP1A2, CYP2B6, CYP2C8, CYP2C9, and CYP2D6, 45 min for CYP2C19. Reactions were terminated by adding 120 µL of ACN containing internal standards. The final internal standard concentrations were: 0.1 µM for CYP2C19, CYP1A2, CYP3A4 (midazolam), and CYP2D6, 200 ng/mL for CYP3A4 (testosterone), 0.31 µM for CYP2C9, 0.36 µM (100 ng/mL) for CYP2B6, 40 ng/mL for CYP2C8. […]

[1] = pH 7.4, probe midazolam, midazolam substrate, read-out: % CYP inhibition @ 10 µM 3A4 (midazolam)
[2] = pH 7.4, probe testosterone, testosterone substrate, read-out: % CYP inhibition @ 10 µM 3A4 (testosterone)

T1 sequence (P08684 whole entry): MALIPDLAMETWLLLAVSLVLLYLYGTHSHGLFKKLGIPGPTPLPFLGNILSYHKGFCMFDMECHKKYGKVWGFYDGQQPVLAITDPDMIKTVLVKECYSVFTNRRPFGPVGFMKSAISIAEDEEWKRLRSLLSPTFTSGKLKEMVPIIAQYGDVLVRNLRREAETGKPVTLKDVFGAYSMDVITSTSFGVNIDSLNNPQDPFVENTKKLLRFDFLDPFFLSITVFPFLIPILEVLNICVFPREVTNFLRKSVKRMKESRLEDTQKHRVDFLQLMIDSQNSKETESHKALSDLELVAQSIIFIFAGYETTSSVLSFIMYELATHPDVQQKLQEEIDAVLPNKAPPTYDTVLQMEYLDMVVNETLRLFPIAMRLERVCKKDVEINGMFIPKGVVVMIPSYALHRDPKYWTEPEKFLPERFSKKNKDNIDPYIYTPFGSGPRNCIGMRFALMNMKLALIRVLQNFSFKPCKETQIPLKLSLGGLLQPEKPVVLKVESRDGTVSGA

Row | inhibition at 5 min, 10 µM [1] | inhibition at 5 min, 10 µM [2] | Compound
1 | 5.28% | -22.6% | O=C(Nc1ccc(-c2cc3cc(F)c(-c4nnn[nH]4)cc3n2C2CCC2)cc1)C(=O)Nc1ccc(N2CCC(CO)CC2)cc1 [Example 23]
2 | 13% | -0.87% | O=C(Nc1ccc(-c2cc3cc(F)c(-c4nnn[nH]4)cc3n2C2CCC2)cc1)C(=O)Nc1ccc(N2CCC3(CCOC3)CC2)cc1 [Example 67]
3 | -10.2% | 2.46% | CC1(n2c(-c3ccc(NC(=O)C(=O)Nc4ccc(N5CCC6(CCOC6)CC5)cc4)cc3)cc3cc(F)c(-c4nnn[nH]4)cc32)CCC1 [Example 68]
